Laboratory results taken from article PMC6719014, “First-In-Class Inhibitors Targeting the Interaction between Bacterial RNA Polymerase and Sigma Initiation Factor Affect the Viability and Toxin Release of Streptococcus pneumoniae” (Molecules, 2019).

Target: T1, RNAP CH-σ (B. subtilis RpoC clamp-helix domain and full-length SigA) (Bacillus subtilis, UniProt P37871)
T1 construct: RpoC clamp-helix domain 220-315 with SmBiT NanoLuc tag (N-terminal, pCU252); full-length SigA with LgBiT NanoLuc tag (C-terminal, pCU251); purified recombinant; tags kept; with RNA polymerase sigma factor SigA
Experiment: split-luciferase (NanoLuc) protein-protein interaction inhibition
Type: binding

Row | Structure (SMILES) | IC50 [µM]
1 | Nc1ccccc1Sc1ccc(C(=O)c2ccccc2C(=O)O)cc1[N+](=O)[O-] [C3-001, 2-(4-((2-Aminophenyl)thio)-3-nitrobenzoyl)benzoic Acid] | 6.4 ± 0.71

Target: T1, RNAP CH-σ (B. subtilis RpoC clamp-helix domain and full-length SigA)
Experiment: as above
Type: biochemical
Remark: another data set of the same source
Text: split-luciferase (NanoLuc) protein-protein interaction inhibition on RNAP CH-σ (B. subtilis RpoC clamp-helix domain and full-length SigA)

Row | Structure (SMILES) | inhibition at 10 µM [%]
2 | Nc1ccccc1Sc1ccc(C(=O)c2ccccc2C(=O)O)cc1[N+](=O)[O-] [C3-001, 2-(4-((2-Aminophenyl)thio)-3-nitrobenzoyl)benzoic Acid] | 62.2 ± 2.6
3 | Nc1cc(Cl)ccc1Sc1ccc(C(=O)c2ccccc2C(=O)O)cc1[N+](=O)[O-] [C3-004, 2-(4-((2-Amino-4-chlorophenyl)thio)-3-nitrobenzoyl)benzoic Acid] | 60.5 ± 16.5
4 | Nc1cccc(Sc2ccc(C(=O)c3ccccc3C(=O)O)cc2[N+](=O)[O-])c1 [C3-002, 2-(4-((3-Aminophenyl)thio)-3-nitrobenzoyl)benzoic Acid] | 81.3 ± 4.9
5 | Nc1ccc(Sc2ccc(C(=O)c3ccccc3C(=O)O)cc2[N+](=O)[O-])cc1 [C3-003, 2-(4-((4-Aminophenyl)thio)-3-nitrobenzoyl)benzoic Acid] | 69.1 ± 10.7
6 | O=C(O)c1ccccc1C(=O)c1ccc(Sc2ccc(Cl)c(Cl)c2)c([N+](=O)[O-])c1 [C3-005, 2-(4-((3,4-Dichlorophenyl)thio)-3-nitrobenzoyl)benzoic Acid] | 81.7 ± 0.9
